Source: PubChem BioAssay (NCI)
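Following 48 hours of exposure in 96-well plates, responses at five concentrations were used to interpolate endpoints linearly. GI50: concentration for 50% inhibition of growth. TGI: concentration producing complete growth inhibition.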

Key:
Assay in all cases: growth of human tumour cells (NCI), 48 h
[1] = tested on: SN12C renal
[2] = tested on: A498 renal
[3] = tested on: SNB-19 CNS
[4] = tested on: SF-268 CNS
[5] = tested on: HOP-92 NSCLC
[6] = tested on: SR leukemia
[7] = tested on: PC-3 prostate
[8] = tested on: TK-10 renal
[9] = tested on: DU-145 prostate
[10] = tested on: NCI/ADR-RES ovarian

Row | Compound | TGI [1] | TGI [2] | TGI [3] | TGI [4] | TGI [5] | GI50 [1] | GI50 [2] | GI50 [6] | TGI [6] | GI50 [3] | GI50 [4] | GI50 [7] | TGI [7] | GI50 [8] | TGI [8] | GI50 [9] | TGI [9] | GI50 [5] | GI50 [10] | TGI [10]
1 | COc1cc(/C=N/N=C(\N)NO)ccc1O | > 100 µM | > 100 µM | > 100 µM | > 100 µM | > 100 µM | – | – | – | – | – | – | – | – | – | – | – | – | – | – | –
2 | CC(C)C(=O)Nc1ccc(-c2nc(-c3cccc(OCCN4CCOCC4)c3)c(-c3ccnc(Br)c3)[nH]2)cc1 | > 100 µM | 4.74 µM | > 100 µM | > 100 µM | 7.68 µM | 4.46 µM | 1.6 µM | 1.83 µM | 7.09 µM | 3.46 µM | 4.26 µM | 3.08 µM | 14.5 µM | 4.32 µM | 31.3 µM | 4.48 µM | > 100 µM | 2.32 µM | 6.23 µM | > 100 µM
3 | CC(C)NC(=O)OCc1nnn2c1CCC2 | > 100 µM | – | – | – | > 100 µM | – | – | – | > 100 µM | – | – | – | – | – | > 100 µM | – | – | – | – | –
4 | O=c1ccc2c(Cl)cccc2o1 | > 100 µM | > 100 µM | > 100 µM | > 100 µM | > 100 µM | – | – | – | > 100 µM | – | – | – | > 100 µM | – | > 100 µM | – | > 100 µM | – | – | > 100 µM
5 | CSC1=C(SC)C(=O)c2cn(C)c(=O)cc2C1=O | 12.3 µM | 28.4 µM | 31.1 µM | 17 µM | 2.12 µM | – | – | – | – | – | – | – | 26.2 µM | – | 5.39 µM | – | 21 µM | – | – | > 100 µM
6 | CC(C(=O)NCCNC(=O)CCCC(=O)N(C)O)C(=O)NCCNC(=O)CCCC(=O)N(C)O | – | > 100 µM | > 100 µM | > 100 µM | > 100 µM | – | – | – | > 100 µM | – | – | – | > 100 µM | – | > 100 µM | – | > 100 µM | – | – | > 100 µM
